The test system of assay [1] is GEO colon carcinoma cells. Briefly: GEO colon carcinoma xenograft in athymic nu/nu mice. In kind it is in vivo, human. To be noted: for RTG (Relative Tumor Growth): EKB-569 80 mg/kg PO, paclitaxel 25 mg/kg IV. How it is done:
(§1) In all of the experiments, athymic nu/nu female mice (Charles River Laboratories) were injected SC (subcutaneously) with either 7×10^6 or 1×10^7 LoVo colon carcinoma cells or 5×10^6 GEO colon carcinoma cells. When tumors attained a mass of between 80 and 120 mg (Day 0), animals were randomized into treatment groups each containing between 5 and 20 animals, (dependent upon the experiment). Mice were treated orally (PO) with EKB-569 or vehicle control for 15 to 20 days, depending upon the experiment. EKB-569 was formulated in 0.5% Methocel, 0.4% Tween 80. Cytotoxic agents, (paclitaxel, 5-FU and cisplatin), were given either by […] (IP) or intravenous (IV) administration on either days 1, 5 and 9 or on days 1, 5, 9 and 13, depending upon the experiment. Tumor mass ([Length×Width^2]/2) was determined every seven days post staging for up to 35 days. The relative tumor growth, (Mean tumor mass on day measured divided by the mean tumor mass on day zero), and the percent Tumor/Control, (% T/C), was then calculated for each treatment group for as long as the control group remained. The % T/C is defined as the Mean Relative Tumor Growth of the Treated Group divided by the Mean Relative Tumor Growth of Vehicle Control Group multiplied by 100. The data was analyzed via Student's one-tailed t-test. A p-value≦0.05 indicates a statistically significant reduction in relative tumor growth of treated group compared with the vehicle control group or drug treated group.
In the experiment of Table 1 (GEO), 80 mg/kg EKB-569 was administered PO for 15 consecutive days while 25 mg/kg paclitaxel was administered IV on days 1, 5, 9 and 13 (Table 1). The results obtained in this study were identical to that in the LoVo study except that there was up to 85% tumor growth inhibition seen in the group receiving combination therapy.
The activity of EKB-569 in combination with 5-FU was assessed in LoVo and GEO xenografts. In the LoVo experiment, 20 mg/kg EKB-569 was administered for 20 consecutive days while 40 mg/kg 5-FU was administered IP on days 1, 5, 9 and 13. In the GEO experiment, 80 mg/kg EKB-569 was administered PO for 15 consecutive days while 40 mg/kg 5-FU was administered IP on days 1, 5, 9 and 13. […] At all time points, tumor size was smaller in the combination group compared with the single agent groups in these experiments. […]
(In xenograft studies the graft and the host belong to different species.)

Assay [2] relates to LoVo colon carcinoma cells. Description: LoVo colon carcinoma xenograft in athymic nu/nu mice. In kind it is in vivo, mouse xenograft of human tumor cells. To be noted: 5-FU study LoVo, EKB-569 20 mg/kg PO days 1-20, 5-FU 40 mg/kg IP days 1, 5, 9, 13. How it is done: as §1
The activity of EKB-569 in combination with paclitaxel was assessed using the human colon carcinoma lines LoVo and GEO. In the LoVo experiment, 20 mg/kg EKB-569 was administered PO for 20 consecutive days. Twenty mg/kg paclitaxel prepared in 2% cremophor el and 2% ethanol was administered IV on days 1, 5, 9 and 13.
The activity of EKB-569 in combination with 5-FU was assessed in LoVo and GEO xenografts. In the LoVo experiment, 20 mg/kg EKB-569 was administered for 20 consecutive days while 40 mg/kg 5-FU was administered IP on days 1, 5, 9 and 13. In the GEO experiment, 80 mg/kg EKB-569 was administered PO for 15 consecutive days while 40 mg/kg 5-FU was administered IP on days 1, 5, 9 and 13. […] At all time points, tumor size was smaller in the combination group compared with the single agent groups in these experiments.
The activity of EKB-569 in combination with cisplatin was assessed in LoVo and GEO xenografts. In the LoVo study, 20 mg/kg EKB-569 was administered PO for 20 consecutive days while 3 mg/kg cisplatin was administered IP on days 1, 5 and 9. In the GEO experiment, 80 mg/kg EKB-569 was administered PO for 15 consecutive days while 3 mg/kg cisplatin was administered I P on days 1, 5, 9 and 13. In both these experiments, combination therapy gave statistically significant, (p≦0.05), tumor growth inhibition than either drug alone at 3 out of 4 time points examined.

The mark [3] stands for this setting: 5-FU study GEO, Day 8, EKB-569 80 mg/kg PO days 1-15, 5-FU 40 mg/kg IP days 1, 5, 9, 13.
Setting [4] is: 5-FU study GEO, Day 14, EKB-569 80 mg/kg PO days 1-15, 5-FU 40 mg/kg IP days 1, 5, 9, 13.
The mark [5] stands for this setting: 5-FU study GEO, Day 21, EKB-569 80 mg/kg PO days 1-15, 5-FU 40 mg/kg IP days 1, 5, 9, 13.
[6] abbreviates: 5-FU study GEO, Day 28, EKB-569 80 mg/kg PO days 1-15, 5-FU 40 mg/kg IP days 1, 5, 9, 13.
[7] abbreviates: paclitaxel study, Day 6, EKB-569 80 mg/kg PO days 1-15, paclitaxel 25 mg/kg IV days 1, 5, 9, 13.
Setting [8] is: paclitaxel study, Day 15, EKB-569 80 mg/kg PO days 1-15, paclitaxel 25 mg/kg IV days 1, 5, 9, 13.

Data on 3 molecules can be found in patent US20050026933A1, “Use of a combination of an epidermal growth factor receptor kinase inhibitor and cytotoxic agents for treatment and inhibition of cancer” (Wyeth Holdings Corporation, priority 2003, published 2005).

As for `O=c1[nH]cc(F)c(=O)[nH]1` [5-FU, 5-Fluorouracil], the “% T/C” value in assay [1] (setting [3]) is recorded as 58%; in assay [1] (setting [4]), 47%; in assay [1] (setting [5]), 50%; in assay [1] (setting [6]), 60%; in assay [2] (Day 7) it was 59%; in assay [2] (Day 14), 63%. The “% T/C” value was determined as 85% in assay [2] (Day 21) and 77% in assay [2] (Day 29).

Consider `CCOc1cc2ncc(C#N)c(Nc3ccc(F)c(Cl)c3)c2cc1NC(=O)C=CCN(C)C` [EKB-569, 4-dimethylamino-but-2-enoic acid [4-(3-chloro-4-fluoro-phenylamino)-3-cyano-7-ethoxy-quinolin-6-yl]-amide], for which the “% T/C” value in assay [1] (setting [3]) was 55%; in assay [1] (setting [4]), 54%; in assay [1] (setting [5]), 81%; in assay [1] (setting [6]) it was 95%; in assay [1] (setting [7]), 51%; in assay [1] (setting [8]), 53%. In addition, the “% T/C” value in assay [2] (Day 7) was found to be 84%; in assay [2] (Day 14), 67%; in assay [2] (Day 21), 77%; in assay [2] (Day 29), 95%. For the same molecule, the “RTG (Relative Tumor Growth)” value in assay [1] (paclitaxel study, Day 6) was 1.78; in assay [1] (paclitaxel study, Day 15), 3.33; in assay [1] (paclitaxel study, Day 21), 5.19; in assay [1] (paclitaxel study, Day 28), 5.78.

In the case of `CC(=O)O[C@H]1C(=O)[C@@]2(C)[C@H]([C@H](OC(=O)c3ccccc3)[C@]3(O)C[C@H](OC(=O)[C@H](O)[C@@H](NC(=O)c4ccccc4)c4ccccc4)C(C)=C1C3(C)C)[C@]1(OC(C)=O)CO[C@@H]1C[C@@H]2O` [Paclitaxel, paclitaxel], the entries for the “% T/C” value in assay [1] (setting [7]) and in assay [1] (setting [8]) were 46% and 43%, respectively. The “RTG (Relative Tumor Growth)” value in assay [1] (paclitaxel study, Day 6) worked out at 1.63; in assay [1] (paclitaxel study, Day 15), 2.69; in assay [1] (paclitaxel study, Day 21), 2.24; in assay [1] (paclitaxel study, Day 28) it was 2.70.
